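These data come from cells grown in 96-well plates and exposed to compound for 48 hours at five concentrations. The concentration for 50% growth inhibition is given as GI50.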 The source made the active and inactive calls. No stated cut-off is given here; in the data, active = GI50 up to about 1.1 µM and inactive = higher.
How the values were obtained:
Experiment in all cases: growth of human tumour cells (NCI), 48 h
786-0 = tested on: 786-0
A498 = tested on: A498
ACHN = tested on: ACHN
COLO 205 = tested on: COLO 205
HL-60 = tested on: HL-60
KM12 = tested on: KM12
MCF7 = tested on: MCF7
MDA-MB-231 = tested on: MDA-MB-231
MOLT-4 = tested on: MOLT-4
OVCAR-3 = tested on: OVCAR-3
SF-268 = tested on: SF-268
SF-295 = tested on: SF-295
SF-539 = tested on: SF-539
SNB-75 = tested on: SNB-75
SR = tested on: SR
SW-620 = tested on: SW-620
T47D = tested on: T47D
UO-31 = tested on: UO-31
HOP-62 = tested on: HOP-62
PC-3 = tested on: PC-3

SMILES	GI50 (786-0)	GI50 (A498)	GI50 (ACHN)	GI50 (COLO 205)	GI50 (HL-60)	GI50 (KM12)	GI50 (MCF7)	GI50 (MDA-MB-231)	GI50 (MOLT-4)	GI50 (OVCAR-3)	GI50 (SF-268)	GI50 (SF-295)	GI50 (SF-539)	GI50 (SNB-75)	GI50 (SR)	GI50 (SW-620)	GI50 (T47D)	GI50 (UO-31)	GI50 (HOP-62)	GI50 (PC-3)
O=C(CSCC(=O)N/N=C\c1ccc(O)c(O)c1O)N/N=C\c1ccc(O)c(O)c1O	2.01 µM (inactive)	29.7 µM (inactive)	5.87 µM (inactive)	23.3 µM (inactive)	15.8 µM (inactive)	18.3 µM (inactive)	3.8 µM (inactive)	16.6 µM (inactive)	3.15 µM (inactive)	3.38 µM (inactive)	29.5 µM (inactive)	2.24 µM (inactive)	7.67 µM (inactive)	2.11 µM (inactive)	2.33 µM (inactive)	3.39 µM (inactive)	18.7 µM (inactive)	13.7 µM (inactive)	–	–
Cc1ccc(/C=C2\CN(C)CC3C2=NN(c2ccccc2)C3c2ccc(C)cc2)cc1 (stereo not given)	> 100 µM (inactive)	35.3 µM (inactive)	> 100 µM (inactive)	> 100 µM (inactive)	–	> 100 µM (inactive)	> 100 µM (inactive)	> 100 µM (inactive)	36.4 µM (inactive)	> 100 µM (inactive)	> 100 µM (inactive)	> 100 µM (inactive)	–	–	–	> 100 µM (inactive)	> 100 µM (inactive)	> 100 µM (inactive)	> 100 µM (inactive)	38.9 µM (inactive)
CCCCNC(=S)Nc1nc(C(=O)NNC(=S)Nc2ccccc2)cs1	40.1 µM (inactive)	33.1 µM (inactive)	> 100 µM (inactive)	32.7 µM (inactive)	–	> 100 µM (inactive)	> 100 µM (inactive)	30.3 µM (inactive)	> 100 µM (inactive)	> 100 µM (inactive)	> 100 µM (inactive)	> 100 µM (inactive)	> 100 µM (inactive)	38.3 µM (inactive)	–	> 100 µM (inactive)	> 100 µM (inactive)	> 100 µM (inactive)	> 100 µM (inactive)	> 100 µM (inactive)
CSc1nc(SC)c2ncn(C3CC(Oc4ccc(C)cc4)C(COc4ccc(C)cc4)O3)c2n1 (stereo not given)	> 100 µM (inactive)	> 100 µM (inactive)	> 100 µM (inactive)	> 100 µM (inactive)	> 100 µM (inactive)	> 100 µM (inactive)	> 100 µM (inactive)	> 100 µM (inactive)	–	> 100 µM (inactive)	> 100 µM (inactive)	> 100 µM (inactive)	> 100 µM (inactive)	26.5 µM (inactive)	–	> 100 µM (inactive)	63.1 µM (inactive)	0.984 µM (active)	> 100 µM (inactive)	> 100 µM (inactive)
CCC(=O)n1c(=O)n(-c2ccc([N+](=O)[O-])cc2)c(=O)n1C(=O)CC	> 100 µM (inactive)	–	> 100 µM (inactive)	> 100 µM (inactive)	> 100 µM (inactive)	> 100 µM (inactive)	> 100 µM (inactive)	> 100 µM (inactive)	> 100 µM (inactive)	> 100 µM (inactive)	> 100 µM (inactive)	> 100 µM (inactive)	–	> 100 µM (inactive)	> 100 µM (inactive)	> 100 µM (inactive)	> 100 µM (inactive)	> 100 µM (inactive)	> 100 µM (inactive)	> 100 µM (inactive)
CCOC(=O)/C=C(/N=P(c1ccccc1)(c1ccccc1)c1ccccc1)C(F)(F)F	> 10 µM (inactive)	> 10 µM (inactive)	> 10 µM (inactive)	> 10 µM (inactive)	> 10 µM (inactive)	> 10 µM (inactive)	–	> 10 µM (inactive)	> 10 µM (inactive)	> 10 µM (inactive)	> 10 µM (inactive)	> 10 µM (inactive)	> 10 µM (inactive)	> 10 µM (inactive)	> 10 µM (inactive)	–	22.1 µM (inactive)	> 100 µM (inactive)	> 10 µM (inactive)	> 10 µM (inactive)
CCSc1[nH]c(Nc2nc(-c3ccccc3)n(-c3ccccc3)n2)c(C(N)=O)c1C(N)=O	> 10 µM (inactive)	–	–	> 10 µM (inactive)	> 10 µM (inactive)	> 10 µM (inactive)	> 10 µM (inactive)	> 10 µM (inactive)	> 10 µM (inactive)	–	> 10 µM (inactive)	9.62 µM (inactive)	–	9.44 µM (inactive)	> 10 µM (inactive)	> 10 µM (inactive)	> 10 µM (inactive)	–	> 10 µM (inactive)	> 10 µM (inactive)
O=C1CC(C(=O)O)Cc2c(Br)ccc(O)c21 (stereo not given)	> 100 µM (inactive)	–	> 100 µM (inactive)	> 100 µM (inactive)	> 100 µM (inactive)	> 100 µM (inactive)	> 100 µM (inactive)	> 100 µM (inactive)	> 100 µM (inactive)	> 100 µM (inactive)	> 100 µM (inactive)	> 100 µM (inactive)	–	–	43.7 µM (inactive)	–	> 100 µM (inactive)	> 100 µM (inactive)	> 100 µM (inactive)	> 100 µM (inactive)
O=C1CS(=O)(=O)C(c2cccc(Oc3ccccc3)c2)N1C1CC1 (stereo not given)	37.2 µM (inactive)	–	31.2 µM (inactive)	25.2 µM (inactive)	30.8 µM (inactive)	31.4 µM (inactive)	22.8 µM (inactive)	75.2 µM (inactive)	30.4 µM (inactive)	33 µM (inactive)	64.7 µM (inactive)	36.6 µM (inactive)	50.9 µM (inactive)	24.8 µM (inactive)	31.6 µM (inactive)	60.5 µM (inactive)	35 µM (inactive)	27.6 µM (inactive)	–	25.8 µM (inactive)
O=c1[nH]nc(Cc2ccccc2)n1N=C1CCCCC1	> 100 µM (inactive)	> 100 µM (inactive)	> 100 µM (inactive)	> 100 µM (inactive)	> 100 µM (inactive)	> 100 µM (inactive)	> 100 µM (inactive)	> 100 µM (inactive)	> 100 µM (inactive)	> 100 µM (inactive)	> 100 µM (inactive)	> 100 µM (inactive)	–	–	–	> 100 µM (inactive)	> 100 µM (inactive)	> 100 µM (inactive)	> 100 µM (inactive)	> 100 µM (inactive)
C#CC(=O)OCC#CCOC(=O)C#C	15 µM (inactive)	> 100 µM (inactive)	18.3 µM (inactive)	17.9 µM (inactive)	–	19.3 µM (inactive)	20.9 µM (inactive)	25.5 µM (inactive)	–	17.9 µM (inactive)	> 100 µM (inactive)	> 100 µM (inactive)	15.3 µM (inactive)	–	–	20 µM (inactive)	23.7 µM (inactive)	9.14 µM (inactive)	21.6 µM (inactive)	28.7 µM (inactive)
Cc1ccc(-n2cc(-c3ccc(Cl)cc3)c3c(NNC(=S)NCc4ccccc4)ncnc32)cc1	9.77 µM (inactive)	23.6 µM (inactive)	13.6 µM (inactive)	10.7 µM (inactive)	6.98 µM (inactive)	3.66 µM (inactive)	–	17.8 µM (inactive)	6.38 µM (inactive)	4.56 µM (inactive)	8.53 µM (inactive)	6.76 µM (inactive)	13.6 µM (inactive)	–	3.61 µM (inactive)	4.69 µM (inactive)	24.8 µM (inactive)	10.1 µM (inactive)	16.6 µM (inactive)	2.59 µM (inactive)
CC1(C)COC(c2cccc(C3=NC(C)(C)CO3)c2)=N1	> 100 µM (inactive)	–	> 100 µM (inactive)	> 100 µM (inactive)	–	> 100 µM (inactive)	> 100 µM (inactive)	> 100 µM (inactive)	> 100 µM (inactive)	0.0375 µM (active)	> 100 µM (inactive)	–	> 100 µM (inactive)	–	> 100 µM (inactive)	> 100 µM (inactive)	3.75 µM (inactive)	> 100 µM (inactive)	> 100 µM (inactive)	> 100 µM (inactive)
S=C=Nc1ccc(CSc2nc3ccccc3[nH]2)cc1	19.9 µM (inactive)	23 µM (inactive)	14.3 µM (inactive)	15.5 µM (inactive)	36.5 µM (inactive)	17.5 µM (inactive)	–	23.3 µM (inactive)	23.7 µM (inactive)	–	17 µM (inactive)	17.3 µM (inactive)	18.8 µM (inactive)	12.9 µM (inactive)	20.7 µM (inactive)	17.3 µM (inactive)	15.2 µM (inactive)	19.5 µM (inactive)	17.5 µM (inactive)	17.9 µM (inactive)
CC(C)(CO)NC(=O)c1cccs1	> 100 µM (inactive)	–	> 100 µM (inactive)	> 100 µM (inactive)	> 100 µM (inactive)	> 100 µM (inactive)	> 100 µM (inactive)	> 100 µM (inactive)	> 100 µM (inactive)	> 100 µM (inactive)	> 100 µM (inactive)	> 100 µM (inactive)	–	–	> 100 µM (inactive)	> 100 µM (inactive)	> 100 µM (inactive)	> 100 µM (inactive)	> 100 µM (inactive)	> 100 µM (inactive)
COCOc1cc(OC)ccc1C/C=N/O	> 100 µM (inactive)	–	> 100 µM (inactive)	> 100 µM (inactive)	> 100 µM (inactive)	> 100 µM (inactive)	> 100 µM (inactive)	> 100 µM (inactive)	> 100 µM (inactive)	> 100 µM (inactive)	> 100 µM (inactive)	> 100 µM (inactive)	> 100 µM (inactive)	–	> 100 µM (inactive)	> 100 µM (inactive)	> 100 µM (inactive)	> 100 µM (inactive)	> 100 µM (inactive)	> 100 µM (inactive)

Reference: ChEMBL document CHEMBL1201862, “PubChem BioAssay data set” (2004)
